PMC10992857, “Chemoenzymatic access to enantiopure N-containing furfuryl alcohol from chitin-derived N-acetyl-D-glucosamine” (Bioresources and Bioprocessing, 2021)

Assays:
[1] = system: T1, YueD; carbonyl reductase from Bacillus sp. ECU0013; assay: kinetics of asymmetric ketone reduction; type: biochemical; settings: co-substrate NADPH; full assay conditions in supplement Table S3
T1 construct: pET28a, His-tag purified from E. coli BL21(DE3); NADPH-dependent
Source text: kinetics of asymmetric ketone reduction on YueD; carbonyl reductase from Bacillus sp.

[2] = system: T2, ScCR; carbonyl reductase from Streptomyces coelicolor; assay: kinetics of asymmetric ketone reduction; type: biochemical; settings: co-substrate NADH; full assay conditions in supplement Table S3
T2 construct: pET28a, His-tag purified from E. coli BL21(DE3); NADH-dependent

Km [1]: 0.5 mM
Km [2]: 6.3 mM
Structure (SMILES): CC(=O)Nc1coc(C(C)=O)c1 [3A5AF, 3-Acetamido-5-acetylfuran]
